Assay results: PubChem BioAssay (NCI)
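All cell lines were grown in 96-well plates and treated with compound for 48 hours. GI50 = concentration required for 50% inhibition of growth. TGI denotes the concentration required for complete inhibition of growth.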

Columns and labels:
Test in all cases: NCI tumour cell line growth inhibition, 48 h
CAKI-1 renal = tested on: CAKI-1 renal
RPMI-8226 leukemia = tested on: RPMI-8226 leukemia
OVCAR-4 ovarian = tested on: OVCAR-4 ovarian
UACC-62 melanoma = tested on: UACC-62 melanoma
SK-MEL-28 melanoma = tested on: SK-MEL-28 melanoma
DU-145 prostate = tested on: DU-145 prostate
HT29 colon = tested on: HT29 colon
SNB-19 CNS = tested on: SNB-19 CNS
HCT-15 colon = tested on: HCT-15 colon
MOLT-4 leukemia = tested on: MOLT-4 leukemia
NCI/ADR-RES ovarian = tested on: NCI/ADR-RES ovarian
NCI-H522 lung = tested on: NCI-H522 lung
ACHN renal = tested on: ACHN renal
MDA-MB-435 = tested on: MDA-MB-435
OVCAR-3 ovarian = tested on: OVCAR-3 ovarian
HS 578T breast = tested on: HS 578T breast
NCI-H23 lung = tested on: NCI-H23 lung
HL-60(TB) leukemia = tested on: HL-60(TB) leukemia
RXF 393 renal = tested on: RXF 393 renal
MALME-3M melanoma = tested on: MALME-3M melanoma
M14 melanoma = tested on: M14 melanoma
786-0 renal = tested on: 786-0 renal
NCI-H460 lung = tested on: NCI-H460 lung
SR leukemia = tested on: SR leukemia
SN12C renal = tested on: SN12C renal
PC-3 prostate = tested on: PC-3 prostate
U251 CNS = tested on: U251 CNS
IGROV1 ovarian = tested on: IGROV1 ovarian
UACC-257 melanoma = tested on: UACC-257 melanoma

CCOC(=O)/C=C1\SC(=Nc2ccc(C#N)cc2)N(CCN2C(=O)/C(=C/C(=O)OCC)SC2=Nc2ccc(C#N)cc2)C1=O
GI50 (CAKI-1 renal): 3.57 µM | TGI (CAKI-1 renal): 14.9 µM | GI50 (RPMI-8226 leukemia): 0.415 µM | TGI (RPMI-8226 leukemia): 2.99 µM | GI50 (OVCAR-4 ovarian): 2.28 µM | TGI (OVCAR-4 ovarian): 29.9 µM | GI50 (UACC-62 melanoma): 3.25 µM | TGI (UACC-62 melanoma): 17.9 µM | GI50 (SK-MEL-28 melanoma): 8.86 µM | TGI (SK-MEL-28 melanoma): 27.5 µM | GI50 (DU-145 prostate): 3.04 µM | TGI (DU-145 prostate): 13.6 µM | GI50 (HT29 colon): 1.11 µM | TGI (HT29 colon): 10.1 µM | GI50 (SNB-19 CNS): 2.12 µM | TGI (SNB-19 CNS): 12.9 µM | GI50 (HCT-15 colon): 0.408 µM | TGI (HCT-15 colon): 2.53 µM | GI50 (MOLT-4 leukemia): 1.15 µM | TGI (MOLT-4 leukemia): > 100 µM | GI50 (NCI/ADR-RES ovarian): 3.21 µM | TGI (NCI/ADR-RES ovarian): 42.3 µM | GI50 (NCI-H522 lung): 6.56 µM | TGI (NCI-H522 lung): 24.3 µM | GI50 (ACHN renal): 4.62 µM | TGI (ACHN renal): 17.9 µM | GI50 (MDA-MB-435): 3.21 µM | TGI (MDA-MB-435): 16 µM | GI50 (OVCAR-3 ovarian): 0.795 µM | TGI (OVCAR-3 ovarian): 3.27 µM | GI50 (HS 578T breast): 3.84 µM | TGI (HS 578T breast): > 70.5 µM | GI50 (NCI-H23 lung): 3.52 µM | TGI (NCI-H23 lung): 18.1 µM | GI50 (HL-60(TB) leukemia): 2.66 µM | TGI (HL-60(TB) leukemia): 25.6 µM | GI50 (RXF 393 renal): 2.61 µM | TGI (RXF 393 renal): 9.39 µM | GI50 (MALME-3M melanoma): 11 µM | TGI (MALME-3M melanoma): 30 µM | GI50 (M14 melanoma): 3.3 µM | TGI (M14 melanoma): 18.2 µM | GI50 (786-0 renal): 2.08 µM | TGI (786-0 renal): 6.33 µM | GI50 (NCI-H460 lung): 1.81 µM | TGI (NCI-H460 lung): 7.35 µM | GI50 (SR leukemia): 0.303 µM | TGI (SR leukemia): > 100 µM | GI50 (SN12C renal): 2.58 µM | TGI (SN12C renal): 16.6 µM | GI50 (PC-3 prostate): 1.28 µM | TGI (PC-3 prostate): 13.4 µM | GI50 (U251 CNS): 0.554 µM | TGI (U251 CNS): 1.94 µM | GI50 (IGROV1 ovarian): 1.99 µM | TGI (IGROV1 ovarian): 10.7 µM | GI50 (UACC-257 melanoma): 14 µM | TGI (UACC-257 melanoma): 36.4 µM
